According to patent publication US5919756A, “Amides” (Eli Lilly and Company, priority 1997, dated 1999):
In brackets after ≈: the same amount, converted by molar mass.

What was measured:
Type in all cases: cell-based
[1] = test system: Enterococcus, Sensitive (4-6 isolates); assay: Enterococcus screen, broth micro-dilution MIC, sensitive isolates; set-up: unit not given here; details: mean of 4-6 isolates
Procedure: (§1) The antibacterial efficacy of the present compounds is illustrated in TABLE 2. The minimal inhibitory concentrations (MICs) were determined using a standard broth micro-dilution assay.

[2] = test system: Enterococcus, Resistant (4-6 isolates); assay: Enterococcus screen, broth micro-dilution MIC, resistant isolates; set-up: unit not given here; details: mean of 4-6 isolates
Procedure: as §1

[3] = test system: Streptococcus pneumoniae P1; assay: Broth micro-dilution MIC, S PN P1; details: unit assumed
Procedure: as §1

[4] = test system: Staphylococcus haemolyticus 415; assay: Broth micro-dilution MIC, SH 415; details: unit assumed
Procedure: as §1

[5] = test system: Staphylococcus epidermis 270; assay: Broth micro-dilution MIC, SE 270; details: unit assumed
Procedure: as §1

[6] = test system: Staphylococcus haemolyticus 105; assay: Broth micro-dilution MIC, SH 105; details: unit assumed
Procedure: as §1

[7] = test system: Staphylococcus aureus 489; assay: Broth micro-dilution MIC, SA 489; details: unit assumed
Procedure: as §1

[8] = test system: Staphylococcus aureus 446; assay: Broth micro-dilution MIC, SA 446; details: unit assumed
Procedure: as §1

[9] = test system: Staphylococcus aureus 447; assay: Broth micro-dilution MIC, SA 447; details: unit assumed
Procedure: as §1

[10] = test system: Streptococcus pyogenes 203; assay: Broth micro-dilution MIC, S PY 203; details: unit assumed
Procedure: as §1

Compound	Minimum Inhibitory Concentrations (MICs), Mean Values of 4-6 Isolates, Sensitive [1]	Minimum Inhibitory Concentrations (MICs), Mean Values of 4-6 Isolates, Resistant [2]	MIC, S PN P1 [3] [µg/mL]	MIC, SH415 [4] [µg/mL]	MIC, SE270 [5] [µg/mL]	MIC, SH105 [6] [µg/mL]	MIC, SA 489 [7] [µg/mL]	MIC, SA 446 [8] [µg/mL]	MIC, SA 447 [9] [µg/mL]	MIC, S PY 203 [10] [µg/mL]
CNC(CC(C)C)C(=O)NC1C(=O)NC(CC(N)=O)C(=O)NC2C(=O)NC3C(=O)NC(C(=O)NC(C(=O)NCCc4ccccc4)c4cc(O)cc(O)c4-c4cc3ccc4O)C(OC3CC(C)(N)C(O)C(C)O3)c3ccc(c(Cl)c3)Oc3cc2cc(c3OC2OC(CO)C(O)C(O)C2OC2CC(C)(N)C(O)C(C)O2)Oc2ccc(cc2Cl)C1O.O=C(O)C(F)(F)F (centres unmarked) [Example 16, A82846B, phenethylamide, trifluoroacetate salt]	0.25	16	≤ 0.06	0.125	≤ 0.06	≤ 0.06	≤ 0.06	0.125	≤ 0.06	
N^4 -(4-phenoxybenzyl)A82846B, benzylamide, trifiuoroacetate salt [Example 9]	0.082	2	≤ 0.06	1	0.5	1	1	1	1	≤ 0.06
N^4 -(4-phenoxybenzyl)A82846B, n-octylamide, trifluoroacetate salt [Example 6]	0.44	1.7		4	1	1	2	4	1	≤ 0.06
N^4 -(4-PHENOXYBENZYL)A82846B, 3-(DIMETHYLAMINO)PROPYLAMIDE, TRIFLUOROACETATE SALT [Example 1]	0.13	1.4	≤ 0.125	2	0.25	2	2	4	1	≤ 0.06
CNC(CC(C)C)C(=O)NC1C(=O)NC(CC(N)=O)C(=O)NC2C(=O)NC3C(=O)NC(C(=O)NC(C(=O)NCc4ccc(OC)cc4)c4cc(O)cc(O)c4-c4cc3ccc4O)C(OC3CC(C)(N)C(O)C(C)O3)c3ccc(c(Cl)c3)Oc3cc2cc(c3OC2OC(CO)C(O)C(O)C2OC2CC(C)(NCc3ccc(-c4ccccc4)cc3)C(O)C(C)O2)Oc2ccc(cc2Cl)C1O.O=C(O)C(F)(F)F (centres unmarked) [Example 12, N^4-(4-phenylbenzyl)A82846B, (4-methoxybenzyl) amide, trifluoroacetate salt]	0.13	1.7	≤ 0.06	4	2	1	0.5	2	1	≤ 0.06
N^4 -(4-phenylbenzyl)A82846B, (4-cyclohexylphenyl) amide, trifluoroacetate salt [Example 8]	0.33	6.7	≤ 0.06	4	2	4	4	2	2	≤ 0.06
N^4 -(4-phenylbenzyl)A82846B, tert-butylamide, trifluoroacetate salt [Example 4]	0.082	2	≤ 0.06	2	0.125	1		2	0.5	≤ 0.06
N^4 -(4-phenylbenzy1)A82846B, DL-(2-furanon-3-yl)amide [Example 7]	0.048	1.7	≤ 0.06	1	0.5	0.5	1	2	2	≤ 0.06
CCCCc1ccc(CNC2(C)CC(OC3C(Oc4c5cc6cc4Oc4ccc(cc4Cl)C(OC4CC(C)(N)C(O)C(C)O4)C4NC(=O)C(NC(=O)C6NC(=O)C(CC(N)=O)NC(=O)C(NC(=O)C(CC(C)C)NC)C(O)c6ccc(c(Cl)c6)O5)c5ccc(O)c(c5)-c5c(O)cc(O)cc5C(C(=O)NCCc5ccccc5)NC4=O)OC(CO)C(O)C3O)OC(C)C2O)cc1.O=C(O)C(F)(F)F (centres unmarked) [Example 15, N^4-(4-n-butylbenzyl)A82846B, phenethylamide, trifluoroacetate salt]	0.22	1.7	≤ 0.06	2	2	1	2	2	2	≤ 0.06
N^4 -(4-phenylbenzyl)A82846B, butylamide, trifluoroacetate salt [Example 3]	0.11	2.4	≤ 0.06	2	1	0.5	4	2	2	≤ 0.06
CNC(CC(C)C)C(=O)NC1C(=O)NC(CC(N)=O)C(=O)NC2C(=O)NC3C(=O)NC(C(=O)NC(C(=O)NCCC(c4ccccc4)c4ccccc4)c4cc(O)cc(O)c4-c4cc3ccc4O)C(OC3CC(C)(N)C(O)C(C)O3)c3ccc(c(Cl)c3)Oc3cc2cc(c3OC2OC(CO)C(O)C(O)C2OC2CC(C)(NCc3ccc(-c4ccccc4)cc3)C(O)C(C)O2)Oc2ccc(cc2Cl)C1O (centres unmarked) [Example 22, N^4-(4-phenylbenzyl)A82846B, (3,3-diphenyl-n-propyl) amide]	0.87	1.68	0.125 (≈ 0.064 µM)	8 (≈ 4.1 µM)	16 (≈ 8.2 µM)	8 (≈ 4.1 µM)	32 (≈ 16.4 µM)	32 (≈ 16.4 µM)	32 (≈ 16.4 µM)	0.125 (≈ 0.064 µM)
N^4 -(4-phenylbenzyl)A82846B, methylamide, trifluoroacetate salt [Example 2]	0.041	1.19	≤ 0.06	0.25	≤ 0.06	0.125	1	1	0.5	≤ 0.06
CNC(CC(C)C)C(=O)NC1C(=O)NC(CC(N)=O)C(=O)NC2C(=O)NC3C(=O)NC(C(=O)NC(C(=O)NCCCN(C)C)c4cc(O)cc(O)c4-c4cc3ccc4O)C(OC3CC(C)(N)C(O)C(C)O3)c3ccc(c(Cl)c3)Oc3cc2cc(c3OC2OC(CO)C(O)C(O)C2OC2CC(C)(N)C(O)C(C)O2)Oc2ccc(cc2Cl)C1O.O=C(O)C(F)(F)F (centres unmarked) [Example 23, A82846B, (3-(dimethylamino)-n-propyl)amide, trifluoroacetate salt]	0.44	> 128	≤ 0.06	≤ 0.06	≤ 0.06	≤ 0.06	≤ 0.06	0.125	0.125	≤ 0.06
CNC(CC(C)C)C(=O)NC1C(=O)NC(CC(N)=O)C(=O)NC2C(=O)NC3C(=O)NC(C(=O)NC(C(=O)NCCc4ccccc4)c4cc(O)cc(O)c4-c4cc3ccc4O)C(OC3CC(C)(N)C(O)C(C)O3)c3ccc(c(Cl)c3)Oc3cc2cc(c3OC2OC(CO)C(O)C(O)C2OC2CC(C)(NCc3ccc(-c4ccccc4)cc3)C(O)C(C)O2)Oc2ccc(cc2Cl)C1O (centres unmarked) [Example 17, N^4-(4-phenylbenzyl)A82846B, phenethylamide]	0.25	1.4								
N^4 -(4-(4-CHLOROPHENYL)BENZYL)A82846B, 5-AMINOPENTYLAMIDE, TETRA(TRIFLUOROACETATE) SALT [Example 26]	0.44	1.7	0.25	2	1	0.5	2		1	0.25
N^4 -(4-phenoxybenzyl)A82846B, tert-butylamide, trifluoroacetate salt [Example 5]	0.22	4		2	4	4	2	8	2	≤ 0.06
N^4 -(4-(4-CHLOROPHENYL)BENZYL)A82846B, 5-(TERT-BUTOXYCARBONYLAMINO)PENTYLAMIDE, TRIS(TRIFLUOROACETATE) SALT [Example 25]	5.0	2.8								
